Where two headings read alike, the source gives them in different places.
Target: T1, KCNQ2/3 channels (Homo sapiens, UniProt O43525+O43526)
T1 construct: expressed in transfected cells
Assay: Fluorescence assay using a voltage sensitive dye (fluorimetry)
Format: cell-based
Settings: for EC50: IC50 where % efficacy is negative, read-out: Fluorimetry EC50/IC50
Excerpt: Method I. Fluorescence Assay Using a Voltage Sensitive Dye (Fluorimetry)
These voltage-sensitive dyes are fluorescent dyes and, therefore, are forming the link between cell potential influenced by KCNQ modulation and fluorescence intensity. A KCNQ agonist leads to an opening of the channel, potassium and dye efflux, a following hyperpolarization and a reduction of the inner fluorescence intensity in a kinetic protocol. If applying an ion jump by KCl depolarization, KCNQ agonists increase the ΔF/F value. An antagonist performs vice versa, respectively.
Therefore, ‘fluorimetry EC50’ is a measure for the compound potency. The compound efficacy is mirrored by ‘fluorimetry % efficacy’ (‘% Efficacy’) and refers to the maximum response achievable by the test compound, i.e. the plateau effect. This drug's plateau effect is related to the plateau effect, which can be achieved by applying a saturated concentration of a reference compound, e.g. Retigabine (50 μM), in independent wells of the same experimental plate or series.
[…] CHO-K1 cells expressing KCNQ2/3 channels are cultivated adherently at 37° C., 5% CO2 and 95% humidity in cell culture bottles (e.g. 80 cm^2 TC flasks, Nunc) with DMEM-high glucose (Sigma Aldrich, D7777) including 10% FCS (PAN Biotech, e.g. 3302-P270521) or alternatively MEM Alpha Medium (1×, liquid, Invitrogen, #22571), 10% fetal calf serum (FCS) (Invitrogen, #10270-106, heat-inactivated) and the necessary selection antibiotics.
The cell number is determined using a CASY™ cell counter (TCC, Schärfe System). Depending on the optimal density for each individual cell line, 20,000-30,000 cells/well/100 μl are seeded onto 96-well Corning™ CellBIND™ assay plates (Flat Clear Bottom Black Polystyrene Microplates, #3340). Freshly seeded cells are then left to settle for one hour at room temperature, followed by incubation for 24 hours at 37° C., 5% CO2 and 95% humidity.
The voltage-sensitive fluorescent dye from the Membrane Potential Assay Kit (Red™ Bulk format part R8123 for FLIPR, MDS Analytical Technologies™) is prepared by dissolving the contents of one vessel Membrane Potential Assay Kit Red Component A in 200 ml of extracellular buffer (ES buffer, 120 mM NaCl, 1 mM KCl, 10 mM HEPES, 2 mM CaCl2, 2 mM MgCl2, 10 mM glucose; pH 7.4). After removal of the nutrient medium, the cells are washed once with 200 μl of ES buffer, then loaded for 45 min at room temperature in 100 μl of dye solution in the dark.
Fluorescence measurements are carried out in a BMG Labtech FLUOstar™, BMG Labtech NOVOstar™ or BMG Labtech POLARstar™ instrument (525 nm excitation, 560 nm emission, Bottom Read mode). After incubation with the dye, 50 μl of the test substances in the desired concentrations, or 50 μl of ES buffer for control purposes, are applied to the wells of the assay plate and incubated for 30 min at room temperature while being shielded from light. The fluorescence intensity of the dye is then measured for 5 min and the fluorescence value F1 of each well is thus determined at a given, constant time. 15 μl of a KCl solution are then added to each well (final concentration of potassium ions 92 mM). The change in fluorescence intensity is subsequently monitored until all the relevant values have been obtained (mainly 5-30 min). At a given time post KCl application, a fluorescence value F2 is determined, in this case at the time of the fluorescence peak.
For calculation, the fluorescence intensity F2 is corrected for the fluorescence intensity F1, and the activity (ΔF/F) of the target compound on the potassium channel is determined as follows:
In order to determine whether a substance has agonistic activity,
[formula] can be related to
[formula] of control wells.
[formula] is determined by adding to the well only the buffer solution instead of the test substance, determining the value F1K of the fluorescence intensity, adding the potassium ions as described above, and measuring a value F2K of the fluorescence intensity.

[1] = CHO-K1, plateau effect relative to saturated retigabine (50 μM) = 100%, CHO-K1 cells expressing KCNQ2/3, negative values = antagonistic, read-out: Fluorimetry % efficacy (retigabine = 100%)
[2] = CHO-K1 cells expressing KCNQ2/3

T1 sequence (O43526 whole entry): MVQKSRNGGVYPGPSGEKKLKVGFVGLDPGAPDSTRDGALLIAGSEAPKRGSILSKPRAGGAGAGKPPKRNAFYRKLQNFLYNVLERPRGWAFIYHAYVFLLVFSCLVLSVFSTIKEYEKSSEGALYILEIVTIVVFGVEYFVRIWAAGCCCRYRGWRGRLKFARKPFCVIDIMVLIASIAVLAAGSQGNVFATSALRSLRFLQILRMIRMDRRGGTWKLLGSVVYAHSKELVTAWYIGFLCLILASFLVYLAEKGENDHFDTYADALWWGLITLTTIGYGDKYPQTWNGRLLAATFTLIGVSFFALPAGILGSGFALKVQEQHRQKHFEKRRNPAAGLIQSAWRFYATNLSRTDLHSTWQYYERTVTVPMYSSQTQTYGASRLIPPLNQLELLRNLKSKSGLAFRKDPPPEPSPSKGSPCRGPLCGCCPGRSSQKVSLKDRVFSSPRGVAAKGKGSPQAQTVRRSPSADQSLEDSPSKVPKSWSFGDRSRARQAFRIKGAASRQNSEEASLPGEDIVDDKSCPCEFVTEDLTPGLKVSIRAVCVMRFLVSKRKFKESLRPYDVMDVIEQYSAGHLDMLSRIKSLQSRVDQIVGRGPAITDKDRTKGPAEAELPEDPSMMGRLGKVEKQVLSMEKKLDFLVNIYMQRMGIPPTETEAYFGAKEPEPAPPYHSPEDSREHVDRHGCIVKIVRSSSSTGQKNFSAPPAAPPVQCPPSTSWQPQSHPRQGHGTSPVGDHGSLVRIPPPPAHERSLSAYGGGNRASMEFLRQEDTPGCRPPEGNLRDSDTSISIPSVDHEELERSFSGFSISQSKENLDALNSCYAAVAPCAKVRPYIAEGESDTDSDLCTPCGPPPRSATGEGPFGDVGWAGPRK
T1 sequence (O43525 whole entry): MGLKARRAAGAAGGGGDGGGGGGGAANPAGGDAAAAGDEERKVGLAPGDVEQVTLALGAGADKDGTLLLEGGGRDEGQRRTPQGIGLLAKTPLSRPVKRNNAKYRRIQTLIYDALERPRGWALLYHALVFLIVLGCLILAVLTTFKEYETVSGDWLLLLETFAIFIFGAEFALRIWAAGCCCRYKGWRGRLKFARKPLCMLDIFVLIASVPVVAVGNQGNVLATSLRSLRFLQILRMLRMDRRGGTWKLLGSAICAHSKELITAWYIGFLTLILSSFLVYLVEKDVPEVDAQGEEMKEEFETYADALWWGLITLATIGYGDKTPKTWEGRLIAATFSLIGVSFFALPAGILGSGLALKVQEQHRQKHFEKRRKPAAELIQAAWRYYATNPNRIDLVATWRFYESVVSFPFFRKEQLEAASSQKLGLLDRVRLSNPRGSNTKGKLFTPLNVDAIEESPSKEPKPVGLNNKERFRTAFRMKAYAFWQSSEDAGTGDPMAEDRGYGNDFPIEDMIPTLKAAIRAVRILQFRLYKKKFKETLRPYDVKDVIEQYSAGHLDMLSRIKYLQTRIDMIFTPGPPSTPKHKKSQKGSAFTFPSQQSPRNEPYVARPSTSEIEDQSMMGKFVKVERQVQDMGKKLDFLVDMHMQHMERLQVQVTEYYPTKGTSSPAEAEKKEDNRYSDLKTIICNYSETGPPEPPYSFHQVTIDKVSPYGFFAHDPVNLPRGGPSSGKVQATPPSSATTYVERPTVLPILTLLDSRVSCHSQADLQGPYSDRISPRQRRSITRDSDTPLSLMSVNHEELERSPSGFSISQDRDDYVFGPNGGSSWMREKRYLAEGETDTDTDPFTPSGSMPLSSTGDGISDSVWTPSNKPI

Compound | Emax [1] [%] | EC50 [2] [nM] | Emax (CHO-K1, read-out: Fluorimetry % efficacy (retigabine = 100%)) [%]
COc1nc(N2CCOCC2)cc(C)c1C(=O)NCc1cc(F)cc(F)c1 [Example 3, N-[(3,5-Difluoro-phenyl)-methyl]-2-methoxy-4-methyl-6-morpholin-4-yl-pyridine-3-carboxylic acid amide] | 132 | 233 | 
CCSc1nc(N(C)CC2CCCCO2)cc(C)c1C(=O)NCc1cccc(F)c1 (centres unmarked) [Example 5, 2-Ethylsulfanyl-N-[(3-fluorophenyl)-methyl]-4-methyl-6-[methyl-(tetrahydro-pyran-2-yl-methyl)-amino]-pyridine-3-carboxylic acid amide] | 111 | 269 | 
CCSc1nc(N2CC(OC)C2)cc(C)c1C(=O)NCc1cccc(F)c1 [Example 6, 2-Ethylsulfanyl-N-[(3-fluorophenyl)-methyl]-6-(3-methoxy-azetidin-1-yl)-4-methyl-pyridine-3-carboxylic acid amide] | 140 | 3870 | 
CCSc1nc(N2CC(O)C2)cc(C)c1C(=O)NCc1cccc(F)c1 [Example 7, 2-Ethylsulfanyl-N-[(3-fluorophenyl)-methyl]-6-(3-hydroxy-azetidin-1-yl)-4-methyl-pyridine-3-carboxylic acid amide] | 44 |  | 
C/C=C/c1nc(N2CCOCC2)cc(C)c1C(=O)NCc1cccc(F)c1 [Example 9, N-[(3-Fluorophenyl)-methyl]-4-methyl-6-morpholin-4-yl-2-[(E)-prop-1-enyl]pyridine-3-carboxylic acid amide] | 174 | 740 | 
CCSc1nc(N2CCOCC2)cc(C(F)(F)F)c1C(=O)NCc1cccc(F)c1 [Example 11, 2-Ethylsulfanyl-N-[(3-fluorophenyl)-methyl]-6-morpholin-4-yl-4-(trifluoromethyl)-pyridine-3-carboxylic acid amide] | 41 | 175 | 
CCSc1nc(N2CCC(C(=O)OC)CC2)cc(C)c1C(=O)NCc1cccc(F)c1 [Example 13] |  | 1090 | 145

Continued, in another order:

Emax [1] [%] | EC50 [2] [nM] | Compound | Emax (CHO-K1, read-out: Fluorimetry % efficacy (retigabine = 100%)) [%]
145 | 217 | CCSc1nc(N2CCOC(C)C2)cc(C)c1C(=O)NCc1cccc(F)c1 (racemic) [Example 48, 2-Ethylsulfanyl-N-[(3-fluorophenyl)-methyl]-4-methyl-6-(2-methyl-morpholin-4-yl)-pyridine-3-carboxylic acid amide] | 
 | 529 | Cc1cc(N2CCOCC2)nc(C2CC2)c1C(=O)NCCC(O)C(C)(C)C (racemic) [Example X1, 2-Cyclopropyl-N-(3-hydroxy-4,4-dimethyl-pentyl)-4-methyl-6-morpholin-4-yl-pyridine-3-carboxylic acid amide] | 
 | 156 | Cc1cc(N2CCOCC2)nc(C(C)C)c1C(=O)NCCC(O)C(C)(C)C (racemic) [Example X5, N-(3-Hydroxy-4,4-dimethyl-pentyl)-2-isopropyl-4-methyl-6-morpholin-4-yl-pyridine-3-carboxylic acid amide] | 
 | 1990 | Cc1cc(N2CCOCC2)nc(C(C)C)c1C(=O)NCCC(O)C(F)(F)F (racemic) [Example X6, 2-Isopropyl-4-methyl-6-morpholin-4-yl-N-(4,4,4-trifluoro-3-hydroxy-butyl)-pyridine-3-carboxylic acid amide] | 
210 | 2010 | Cc1cc(N2CCOCC2)nc(N2CCOCC2)c1C(=O)NCc1cccc(F)c1 [Example 12, N-[(3-Fluorophenyl)-methyl]-4-methyl-2,6-dimorpholin-4-yl-pyridine-3-carboxylic acid amide] | 
16 |  | CCSc1nc(N2CCC(C(=O)O)CC2)cc(C)c1C(=O)NCc1cccc(F)c1 [Example 14] | 
93 | 7060 | CCSc1nc(N2CCC(O)CC2)cc(C)c1C(=O)NCc1cccc(F)c1 [Example 15, 2-Ethylsulfanyl-N-[(3-fluorophenyl)-methyl]-6-(4-hydroxy-piperidin-1-yl)-4-methyl-pyridine-3-carboxylic acid amide] | 
